From article PMC10526209, “Systematic Exploration of Functional Group Relevance for Anti-Leishmanial Activity of Anisomycin” (Biomedicines, 2023)
Where a name gives a salt, the structure may show the parent alone. Read-outs that look alike come from different tables or passages of the source.

Tests used:
extract of E. coli (S30) = test: Cell-free transcription-translation inhibition in E. coli S30 extract; type: biochemical; settings: for IC50: inhibition of translation in active cell lysate, luciferase reporter, 60 min at 37 °C; for effect on E. coli (in words): translation assay
Method: (§1) Cytosolic ribosome susceptibility and selectivity were assessed through three different cell-free transcription-translation assays: (1) An extract of E. coli (S30, Promega, Madison, WI, USA), (2) in rabbit reticulocytes (Promega), and (3) in L. tarentolae lysate (Jena Bioscience, Jena, Germany). Three plasmids, compatible with each extract system, were used in this study: pBESTlucTM (Promega) for the prokaryotic translation assay, Luciferase T7 DNA (Promega) for the reticulocytes, and pLEXSY-invitro2-EGFP (Jena Bioscience) for Leishmania. Firefly luciferase was used as a reporter gene for the bacterial and reticulocyte systems, and EGFP for Leishmania. […] Assays were performed in white polystyrene 96-well flat-bottom plates (Nunc, Roskilde, Denmark) for luciferase and black polystyrene 384-well flat-bottom plates (Greiner, Kremsmunster, Austria) for EGFP. Incubation times were 60 min at 37 °C, 90 min at 30 °C, and 120 min at 26 °C for the bacterial, reticulocyte, and Leishmania systems, respectively. Reactions were stopped by quick snap cooling followed by a 5 min incubation on ice. Luciferase activity was measured for each well following the addition of 50 μL of Luciferase Assay reagent (Promega, Madison, WI, USA) with an automatic reagent injector (Tecan, Mannedorf, Switzerland) by recording the chemical-luminescence signal. EGFP fluorescence (λex = 488 nm; λem = 507 nm) was recorded on a Tecan Infinite R®F200 microplate reader (Tecan). Extracts lacking the circular DNA template were used as a negative control to calculate the fluorescence/chemical luminescence background. Reaction mixtures without compounds were used as positive controls and were regarded as 100% translation. Paromomycin was used as a control reagent in all assays. At least six different concentrations were used to plot each translation inhibition curve; experiments were performed in three independent repeats in duplicate. Half maximal inhibition concentrations (IC50) values were calculated from the concentration-response fitting curves using GraFit7.0.3 software.

L. tarentolae lysate = test: Cell-free transcription-translation inhibition in L. tarentolae lysate; type: biochemical; settings: for IC50: inhibition of translation in active cell lysate, EGFP reporter, 120 min at 26 °C
Method: as §1

[1] = tested on: rabbit reticulocytes (RR); test: Cell-free transcription-translation inhibition in rabbit reticulocytes; type: biochemical; settings: inhibition of translation in rabbit reticulocyte lysate, luciferase reporter, 90 min at 30 °C
Method: as §1

[2] = tested on: Leishmania infantum (MHOM/MA/67/ITMAP-263) wild-type strain; test: Anti-leishmanial activity on promastigotes, L. infantum WT; type: cell-based; settings: 72 h, 25 °C
Method: (§2) The L. infantum (MHOM/MA/67/ITMAP-263) wild-type strain (WT), as well as the resistant mutants Sb2000.1, AmB1000.1, and MF200.5 [29, 30, 31, 32, 33], which are respectively resistant to antimony (Sb^III), amphotericin B (AmB), and miltefosine (MF), were grown in M199 medium at 25 °C supplemented with 10% fetal bovine serum, 5 μg/mL of haemin at pH 7.0, 2000 μM Sb (Potassium antimonyl tartrate trihydrate, Sigma-Aldrich, Saint Louis, MO, USA), 200 μM of MF (Miltefosine, Cayman Chem, Ann Arbor, MI, USA) or 1 μM AmB (Amphotericin B solution, Sigma-Aldrich, Saint Louis, MO, USA). Leishmanicidal values were determined in Leishmania promastigotes by monitoring the replication of parasites after 72 h of incubation at 25 °C in the presence of increasing concentrations of the different compounds by measuring A600 using a Cytation 5 machine (BioTek-Agilent, Santa Clara, CA 9, USA). EC50 values were calculated based on dose–response curves analyzed by non-linear regression with GraphPad Prism 10.0 software (GraphPad Software, La Jolla, CA, USA). An average of at least three independent biological replicates were performed for each determination.

[3] = tested on: Leishmania infantum (MHOM/MA/67/ITMAP-263) resistant to 2 mM trivalent (and pentavalent) antimonials; test: Anti-leishmanial activity on promastigotes, antimony-resistant L. infantum; type: cell-based; settings: 72 h
Method: as §2

[4] = tested on: Leishmania infantum (MHOM/MA/67/ITMAP-263) resistant to 200 µM miltefosine; test: Anti-leishmanial activity on promastigotes, miltefosine-resistant L. infantum; type: cell-based; settings: 72 h
Method: as §2

[5] = tested on: Leishmania major Friedlin; test: Anti-leishmanial activity on promastigotes, L. major Friedlin; type: cell-based; settings: 72 h, 25 °C
[6] = tested on: Leishmania infantum (MHOM/MA/67/ITMAP-263) resistant to 1 µM amphotericin B; test: Anti-leishmanial activity on promastigotes, amphotericin B-resistant L. infantum; type: cell-based; settings: 72 h
Method: as §2

host macrophage (BMDM) = test: Host macrophage toxicity, MTT survival assay; type: cell-based
[7] = tested on: L. major WT amastigotes in BMDM; test: Drug susceptibility of intracellular amastigotes in infected BMDM, L. major; type: cell-based; settings: Leishmania major; infected BMDM macrophages, 48 h; read-out: EC50 against amastigotes of L. major
Method: (§3) The effect of isopropyl ether 22a on the amastigote intracellular form of Leishmania was determined by the measurement of EC50 values in cells, as previously described. Briefly, 2.5 × 10^5 bone-marrow-derived macrophages (BMDMs) were plated into the wells of 12-well chamber slides (Ibidi) with complete DMEM medium. A culture of L. infantum or L. major WT promastigotes in stationary phase in a ratio of 1:5 BMDM to parasites was used to infect cells. Infection was carried out for 3 h at 37 °C in DMEM medium with 5% CO2 without drug. After 24 h, increasing concentrations of ether 22a were added to the medium containing the infected macrophages. After 48 h, the slides were fixed in methanol and stained with Diff-Quick solution to facilitate parasite visualization. The number of infecting amastigotes per 100 cells was determined by examining 300 macrophages per triplicate assay and normalized to the untreated control. EC50 values in the amastigote form were calculated based on dose–response curves that were analyzed by non-linear regression using the GraphPad Prism 9.0 software. An average of three independent biological replicates was used to perform the analyses.

[8] = tested on: L. infantum WT amastigotes in BMDM; test: Drug susceptibility of intracellular amastigotes in infected BMDM, L. infantum; type: cell-based; settings: Leishmania infantum; infected BMDM macrophages, 48 h; read-out: EC50 against amastigotes of L. infantum
Method: as §3

[9] = Leishmania infantum, read-out: IC50 (μM) Ldi WT
[10] = Leishmania infantum, read-out: IC50 (μM) Ldi Sb-Res
[11] = Leishmania infantum, read-out: IC50 (μM) Ldi MF-Res
[12] = Leishmania major, read-out: IC50 (μM) LmF WT
[13] = Leishmania infantum, read-out: IC50 (μM) Ldi AmB-Res

Compound | IC50 (extract of E. coli (S30)) [µM] | IC50 (L. tarentolae lysate) [µM] | IC50 [1] [µM] | further results
COc1ccc(C[C@H]2NC[C@H](O)[C@H]2OC(C)=O)cc1I [Analog 16, (2R,3S,4S)-4-hydroxy-2-(3-iodo-4-methoxybenzyl)-pyrrolidin-3-yl acetate] | > 1000 | > 1000 | 73.7 ± 1.7 | activity against L. tarentolae translation / anti-protozoan activity (in words) (L. tarentolae lysate): abolished anti-protozoan activity
CCCCCCCCOc1ccc(C[C@H]2NC[C@H](O)[C@H]2OC(C)=O)cc1 [Analog 22b, (2R,3S,4S)-4-hydroxy-2-(4-octyloxybenzyl)-pyrrolidin-3-yl acetate] | > 200 | 33.5 ± 8.2 | 9.5 ± 3.5 | IC50 [2, 9]: 1.11 ± 0.03 µM; IC50 [3, 10]: 1.75 ± 0.08 µM; IC50 [4, 11]: 1.83 ± 0.06 µM; IC50 [5, 12]: 1.75 ± 0.12 µM; IC50 [6, 13]: 1.78 ± 0.58 µM
COc1ccc(C[C@@H]2[C@H](OC(C)=O)[C@@H](O)CN2C)cc1 [Analog 8, (2R,3S,4S)-1-methyl-4-hydroxy-2-(4-methoxybenzyl)-pyrrolidin-3-yl acetate] | > 1000 | > 100 | 25.5 ± 3.6 | 
CC(=O)O[C@@H]1[C@@H](O)CN[C@@H]1Cc1ccc(OCc2ccccc2)cc1 [Analog 22c, (2R,3S,4S)-4-hydroxy-2-(4-benzyloxybenzyl)-pyrrolidin-3-yl acetate] | > 200 | 7.96 ± 1.02 | 0.9 ± 0.2 | 
COc1ccc(C[C@H]2NC[C@H](OC(C)=O)[C@H]2OC(C)=O)cc1 [Analog 9, (2R,3S,4S)-3,4-diacetoxy-2-(4-methoxybenzyl)-pyrrolidine hydrochloride] | > 1000 | > 100 | 25.7 ± 8.5 | 
CC(=O)O[C@@H]1[C@@H](O)CN[C@@H]1Cc1ccc(OCC(=O)O)cc1 [Analog 22d, (2R,3S,4S)-4-hydroxy-2-(4-carboxymethyloxybenzyl)-pyrrolidin-3-yl acetate] |  |  |  | IC50 [2, 9]: 14.9 ± 2.18 µM; IC50 [3, 10]: 16 ± 1.03 µM; IC50 [4, 11]: 18.2 ± 2.33 µM; IC50 [5, 12]: 16.6 ± 2.23 µM; IC50 [6, 13]: 19.2 ± 1.24 µM
CC(=O)O[C@@H]1[C@@H](O)CN[C@@H]1Cc1ccc(OC(C)C)cc1 [Analog 22a, (2R,3S,4S)-4-hydroxy-2-(4-iso-propoxybenzyl)-pyrrolidin-3-yl acetate] | > 200 | 1.13 ± 0.12 | 0.9 ± 0.3 | effect on E. coli (in words) (extract of E. coli (S30)): no effect; IC50 ([2]; Leishmania infantum, unit nM, read-out: IC50 Ldi WT): 0.122 ± 0.00562 µM; IC50 ([3]; Leishmania infantum, read-out: IC50 Ldi Sb-Res): 0.129 ± 0.00316 µM; IC50 ([4]; Leishmania infantum, read-out: IC50 Ldi MF-Res): 0.133 ± 0.0078 µM; IC50 ([5]; Leishmania major, unit nM, read-out: IC50 LmF WT): 0.18 ± 0.00469 µM; fold greater selectivity against the different amastigotes relative to host macrophage toxicity (host macrophage (BMDM); MTT survival assay): 5–10 fold; host cell toxicity (in words) (host macrophage (BMDM); host BMDM cells): without host cell toxicity; EC50 [7]: 0.0537 µM; IC50 ([6]; Leishmania infantum, read-out: IC50 Ldi AmB-Res): 0.119 ± 0.0141 µM; EC50 [8]: 0.0333 µM
COc1ccc(C[C@H]2NC[C@H](O)[C@H]2OC)cc1 [Analog 11, (2R,3S,4S)-3-methoxy-4-hydroxy-2-(4-methoxybenzyl)-pyrrolidine hydrochloride] | > 1000 | 24 ± 2.5 | 70.9 ± 8.3 | 
Potassium antimonyl tartrate trihydrate [reference compound] |  |  |  | IC50 ([2]; read-out: IC50 (μM) Ldi WT): 75.8 ± 6.13 µM; IC50 ([3]; promastigotes, 25 °C, read-out: IC50 (μM) Ldi Sb-Res): > 2000 µM; IC50 ([4]; promastigotes, 25 °C, read-out: IC50 (μM) Ldi MF-Res): 85.3 ± 7.1 µM; IC50 ([5]; read-out: IC50 (μM) LmF WT): 25 ± 1.13 µM; IC50 ([6]; promastigotes, 25 °C, read-out: IC50 (μM) Ldi AmB-Res): 90.2 ± 8.3 µM
CC(=O)O[C@@H]1[C@@H](O)CN[C@@H]1Cc1ccc(O)cc1 [Analog 17, (2R,3S,4S)-4-hydroxy-2-(4-hydroxybenzyl)-pyrrolidin-3-yl acetate] | > 200 | 53.7 ± 6.1 | 6.2 ± 0.45 | 
CCCCCCCCCCCCCCCCOP(=O)([O-])OCC[N+](C)(C)C [Miltefosine, reference compound] |  |  |  | IC50 [2, 9]: 7.16 ± 0.21 µM; IC50 [3, 10]: 8.21 ± 0.53 µM; IC50 [4, 11]: > 200 µM; IC50 [5, 12]: 8.47 ± 1.18 µM; IC50 [6, 13]: 30.3 ± 4.28 µM
COc1ccc(C[C@H]2NC[C@H](O)[C@H]2OC(C)=O)cc1 [Analog 1, Anisomycin] | > 500 | 0.55 ± 0.03 | 0.1 ± 0.02 | effect on E. coli (in words) (extract of E. coli (S30)): no effect
COc1ccc(C[C@H]2NC[C@H](O)[C@H]2O)cc1 [Analog 2, (2R,3S,4S)-3,4-dihydroxy-2-(4-methoxybenzyl)-pyrrolidine] | > 1000 | > 100 | > 1000 | 
COc1ccc(C[C@H]2NC[C@H](OC)[C@H]2OC)cc1 [Analog 10, (2R,3S,4S)-3,4-dimethoxy-2-(4-methoxybenzyl)-pyrrolidine hydrochloride] | > 1000 | > 1000 | > 1000 | 
CC(=O)O[C@@H]1[C@@H](O)CN[C@@H]1Cc1cc(CN2CCOCC2)c(O)c(CN2CCOCC2)c1 [Analog 20, (2R,3S,4S)-4-hydroxy-2-[3,5-di-(morpholinomethyl)-4-hydroxybenzyl]-pyrrolidin-3-yl acetate] | > 1000 | > 1000 | > 1000 | activity against L. tarentolae translation / anti-protozoan activity (in words) (L. tarentolae lysate): abolished anti-protozoan activity
NC[C@@H]1O[C@H](O[C@H]2[C@@H](O)[C@H](O[C@@H]3[C@@H](O)[C@H](N)C[C@H](N)[C@H]3O[C@H]3O[C@H](CO)[C@@H](O)[C@H](O)[C@H]3N)O[C@@H]2CO)[C@H](N)[C@@H](O)[C@@H]1O [Paromomycin, reference compound] | 0.051 ± 0.005 | 3.62 ± 0.09 | 21 ± 1.1 | 
CC(=O)O[C@@H]1[C@@H](O)CN[C@@H]1Cc1cc(CN(C)C)c(O)c(CN(C)C)c1 [Analog 19, (2R,3S,4S)-4-hydroxy-2-[3,5-di-(dimethylaminomethyl)-4-hydroxybenzyl]-pyrrolidin-3-yl acetate] | > 200 | > 1000 | 70.7 ± 7.3 | activity against L. tarentolae translation / anti-protozoan activity (in words) (L. tarentolae lysate): abolished anti-protozoan activity
